Assay results published in US20250008983A1, “COMPOSITIONS CONTAINING PEROXYACIDS TO CONTROL PATHOGEN GROWTH IN ANIMAL FEED AND RELATED METHODS” (KEMIN INDUSTRIES, INC., priority 2023, published 2025).
Like-named read-outs stand apart in the source and are kept apart here.

Key:
Enterobacteriaceae = type: cell-based
Description: Materials and Method. Naturally contaminated layer feed was collected, ground, and mixed well prior to weighing. The ground feed was weighed and separated into 15 different bags, each containing 300 g. The product/prototype was accurately weighed at the needed dosage and adjusted to a total volume of 5 mL prior to adding into the 300 g of feed with a syringe and needle. Product/prototype was added in batches (i.e., 2, 2, and 1 mL separately) and mixed after each addition. Five mL of sterile water was added into the feed and served as the control. The treated feed samples were homogenized after treatment and kept at 25° C. until the day of enumeration.
TEC of the 15 samples were studied over a period of 22 days with enumeration interval at time points 0, 1 and 22 days. The effect of peroxy acid was neutralized at each time point prior to enumeration. At each time point, 20 mL of 0.1 M sodium thiosulphate was added into 10 g of each treated feed sample in a sterile bag. The mixture was mixed well and left to stand for 10 minutes. After 10 minutes, 70 mL of BPW was added to achieve 10^−1 dilution. The feed suspension was homogenously mixed and left to stand for 30 minutes. Subsequently, the feed suspension was serial diluted to appropriate dilutions for enumeration. 100 uL of the diluted samples were plated onto Violet Red Bile Glucose (VRBG; CM0485 from Oxoid) agar, prepared as per recommended by the supplier. An aliquot of 0.1 mL of the feed suspension was plated onto the agar at each dilution and incubated at 37° C. for 18-24 hours prior to enumeration. Plating was carried out in triplicates. If low TEC is expected, the sample size is increased to 1 mL by plating 300, 300 and 400 uL onto three plates in triplicates for lower detection limit (10 CFU/g). The diluted feed samples (at 10^−1 dilution factor) were kept at 37° C. for 18-24 hours for enrichment prior to streaking. A loopful of diluted feed suspension was streaked onto the VRBG agar and incubated at 37° C. for 18-24 hours to determine qualitatively the presence of Enterobacteriaceae for samples with undetectable TEC.

[1] = Stability of PPA in various diluent (peroxy value by titrimetry); type: physicochemical
Description: Stability of PPA in various diluent. In a separate study, the peroxy value of the mixture was estimated using the titrimetry procedure in 10 minutes and after 4 h of preparing the PPA solution with different diluents.
The peroxy acid value of PPA, when diluted with different diluents, is summarized below in Table 12.

[2] = tested on: Salmonella enterica isolated from layer feed; experiment: Preliminary in vitro feed assay, Salmonella count in contaminated feed over 21 days; type: cell-based; conditions: 15 kg/ton; pre-treatment Day 0
Description: Preparation of the treatment. Perpropionic acid, peracetic acid, mixture of peroctanoic acid and perdecanoic acid (PC8/PC10) and Sal CURB products were used without any further dilution or mixing. The peroxy mix was prepared by mixing peracetic and perpropionic acid in 1:1 weight ratio. Briefly, 1.0 g of peroxy mix was prepared by weighing 0.5 g of peracetic acid into 0.5 g of perpropionic acid. The mixture was mixed well prior to usage. Similar procedure was followed in the preparation of 3% sulphuric acid (where […] of water) and peroxy mix with ester (where 0.9 g of peroxy mix (prepared with peracetic and propionic acid) was mixed with 0.1 g of propylene glycol propionate esters). […] Briefly, 1 mL of 75% phosphoric acid was added to 10 mL of Pro-Oxine solution and mixed well. The mixture is covered and let to stand for 10 mins prior to usage.
Preparation of stock feed inoculum. The researchers prepared contaminated feed from known methods, where Salmonella enterica isolated from layer feed was revived from the glycerol stock by plating a loopful of culture onto the TSAYE (i.e., tryptone soya agar supplemented with 0.6% yeast extract (CM0131B; Oxoid) prepared as per recommended) and incubate for 18-24 hours at 37° C. Following which, the colonies were collected aseptically with saline solution (i.e., 0.9% sodium chloride (V800372; Sigma-Aldrich) prepared in deionized water), yielding approximately 5 mL of biomass suspension. The biomass suspension was diluted accordingly to meet the contamination level required for the stock inoculum. No dilution was required for high contamination level of ca. 10^7 cfu/g whereas biomass suspension was diluted 1000 times to achieve lower contamination level of ca. 10^4 cfu/g in the stock inoculum. The stock feed inoculum was prepared by adding the biomass suspension (5 mL) into 100 g of sterile feed (made up with 7:3 ground corn and soybean, autoclaved at 121° C. for one hour and dried for 24 hours at 65° C.) with a syringe and needle, and homogenously mixed after. The stock feed inoculum was stored at 25° C. for a week. Salmonella count of the stock inoculum was determined using conventional plating method with XLD agar (i.e., Xylose lysine deoxycholate (CM0469B; Oxoid)) and BPW (i.e., buffered peptone water (CM0509B; Oxoid)) prior to usage. Briefly, three grams of stock feed inoculum was weighed into a 50 mL conical tube, diluted with 27 mL of BPW, homogenously mixed and left to stand for 30 minutes. The feed suspension was then serial diluted to the appropriate dilutions. An aliquot of 0.1 mL of the feed suspension was plated onto the agar at each dilution and incubated at 37° C. for 18-24 hours prior to enumeration. Plating was carried out in triplicates. Blank stock feed was prepared by adding 5 mL of saline into 100 g of sterile feed.
Preparation of the feed inoculum. The stock feed inoculum was diluted approximately 100 times with sterile feed where three grams of stock inoculum was added into 307 g of sterile feed and kept at 37° C. for 24 hours. The Salmonella count of the feed was determined prior to treatment. Briefly, 90 mL of BPW was added into 10 g of feed sample in a sterile bag (10^−1 dilution). The mixture was homogenously mixed with a stomacher at medium speed for three minutes and left to stand for 30 minutes. The feed supernatant was serial diluted to appropriate dilutions for plating. The plates were incubated at 37° C. for 18-24 hours prior to counting. If low Salmonella count was expected, the sample size was increased to 1 mL by plating 300, 300 and 400 uL onto three plates in triplicates for […] detection limit (10 cfu/g). Blank feed was prepared by adding three grams of blank stock feed into 307 g of sterile feed. In addition, an extra contaminated feed was prepared as a control.
Treatment of contaminated feed. […]

[3] = 2.5% ammonium hydroxide, after 10 minutes
[4] = 2.5% ammonium hydroxide, after 240 minutes
[5] = 5% sodium hydroxide, after 10 minutes
[6] = 5% sodium hydroxide, after 240 minutes
[7] = Deionized Water, after 10 minutes
[8] = Deionized Water, after 240 minutes
[9] = Sodium phosphate buffer, after 10 minutes
[10] = Sodium phosphate buffer, after 240 minutes

For `CCC(=O)OO` [Perpropionic acid, perpropionic acid], the TEC (Enterobacteriaceae; 2.5 kg/ton, post treatment Day 1) was 2.41 log CFU/g, the TEC (Enterobacteriaceae; 2.5 kg/ton, post treatment Day 22) was <1.00 log CFU/g and the TEC (Enterobacteriaceae; 2.5 kg/ton, pre-treatment Day 0) was 2.12 log CFU/g. For the same compound, the TEC (Enterobacteriaceae; 5.0 kg/ton, post treatment Day 1) was 2.47 log CFU/g, the TEC (Enterobacteriaceae; 5.0 kg/ton, post treatment Day 22) was 1.73 log CFU/g and the TEC (Enterobacteriaceae; 5.0 kg/ton, pre-treatment Day 0) was <2.00 log CFU/g. For the same compound, the TEC (Enterobacteriaceae; 10.0 kg/ton, post treatment Day 1) was 2.19 log CFU/g, the TEC (Enterobacteriaceae; 10.0 kg/ton, post treatment Day 22) was <1.00 log CFU/g and the TEC (Enterobacteriaceae; 10.0 kg/ton, pre-treatment Day 0) was <2.00 log CFU/g. The pH ([1]; 2 g PPA + 8 g 2.5% ammonium hydroxide) was 6.11, the pH ([1]; 2 g PPA + 8 g 5% sodium hydroxide) was 5.44 and the pH ([1]; 2 g PPA + 8 g Deionized Water) was 1.77. For the same compound, the pH ([1]; 2 g PPA + 8 g Sodium phosphate buffer) was 5.34, the “H2O2 (%)” value [1, 3] was 1.85% and the “PPA (%)” value [1, 3] was 4.18%. The “H2O2 (%)” value [1, 4] was 2.34%, the “PPA (%)” value [1, 4] was 3.31% and the “H2O2 (%)” value [1, 5] was 1.47%. The “PPA (%)” value [1, 5] was 4.4%, the “H2O2 (%)” value [1, 6] was 1.12% and the “PPA (%)” value [1, 6] was 2.55%. The “H2O2 (%)” value [1, 7] was 1.85%, the “PPA (%)” value [1, 7] was 5.54% and the “H2O2 (%)” value [1, 8] was 1.96%. For the same compound, the “PPA (%)” value [1, 8] was 4.75%, the “H2O2 (%)” value [1, 9] was 1.92% and the “PPA (%)” value [1, 9] was 5.82%. The “H2O2 (%)” value [1, 10] was 1.88%, the “PPA (%)” value [1, 10] was 5.19% and the Salmonella count [2] was 5.62 log cfu/g.
